In PubChem BioAssay (NCI):
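Dose response: 5 concentrations. Exposure: 48 h. Format: 96-well plates. Endpoint: linear interpolation; highest concentration if not reached. The concentration for full growth arrest is given as TGI.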

Assays:
Assay in all cases: NCI-60 cell line screen, 48 h
[1] = system: OVCAR-3 ovarian
[2] = system: RPMI-8226 leukemia
[3] = system: SNB-78 CNS
[4] = system: NCI-H226 lung
[5] = system: EKVX NSCLC
[6] = system: OVCAR-8 ovarian
[7] = system: K-562 leukemia
[8] = system: U251 CNS
[9] = system: DLD-1 colon
[10] = system: HOP-62 NSCLC
[11] = system: LOX IMVI melanoma
[12] = system: OVCAR-5 ovarian
[13] = system: A549 NSCLC
[14] = system: M14 melanoma
[15] = system: DMS 273 small cell lung
[16] = system: SK-MEL-28 melanoma
[17] = system: KM20L2 colon
[18] = system: CAKI-1 renal
[19] = system: CCRF-CEM leukemia
[20] = system: ACHN renal
[21] = system: SN12C renal
[22] = system: RXF 393 renal
[23] = system: HL-60(TB) leukemia
[24] = system: 786-0 renal
[25] = system: HCC-2998 colon
[26] = system: HOP-92 NSCLC
[27] = system: SK-MEL-5 melanoma
[28] = system: SF-295 CNS
[29] = system: KM12 colon
[30] = system: UO-31 renal
[31] = system: NCI-H23 lung
[32] = system: SW-620 colon
[33] = system: SR leukemia
[34] = system: UACC-62 melanoma
[35] = system: SK-OV-3 ovarian
[36] = system: COLO 205 colon
[37] = system: OVCAR-4 ovarian
[38] = system: NCI-H460 lung
[39] = system: TK-10 renal
[40] = system: SF-268 CNS
[41] = system: SNB-75 CNS
[42] = system: HOP-18 NSCLC
[43] = system: SK-MEL-2 melanoma
[44] = system: UACC-257 melanoma
[45] = system: IGROV1 ovarian
[46] = system: HT29 colon
[47] = system: MOLT-4 leukemia
[48] = system: HCT-116 colon
[49] = system: LXFL 529 NSCLC
[50] = system: A498 renal
[51] = system: SNB-19 CNS
[52] = system: MALME-3M melanoma
[53] = system: M19-MEL melanoma
[54] = system: NCI-H522 lung
[55] = system: HCT-15 colon
[56] = system: DMS 114 small cell lung
[57] = system: SF-539 CNS

## CCOC(=O)C1(c2ccccc2)CCCNCC1 (configuration not stated)
[1]
  TGI: > 100 µM
[2]
  TGI: > 100 µM
[3]
  TGI: > 100 µM
[4]
  TGI: > 100 µM
[5]
  TGI: > 100 µM
[6]
  TGI: > 100 µM
[7]
  TGI: > 100 µM
[8]
  TGI: > 100 µM
[9]
  TGI: > 100 µM
[10]
  TGI: > 100 µM
[11]
  TGI: > 100 µM
[12]
  TGI: > 100 µM
[13]
  TGI: > 100 µM
[14]
  TGI: > 100 µM
[15]
  TGI: > 100 µM
[16]
  TGI: > 100 µM
[17]
  TGI: > 100 µM
[18]
  TGI: > 100 µM
[19]
  TGI: > 100 µM
[20]
  TGI: > 100 µM
[21]
  TGI: > 100 µM
[22]
  TGI: > 100 µM
[23]
  TGI: > 100 µM
[24]
  TGI: > 100 µM
[25]
  TGI: > 100 µM
[26]
  TGI: > 100 µM
[27]
  TGI: > 100 µM
[28]
  TGI: > 100 µM
[29]
  TGI: > 100 µM
[30]
  TGI: > 100 µM
[31]
  TGI: > 100 µM
[32]
  TGI: > 100 µM
[33]
  TGI: 88.8 µM
[34]
  TGI: > 100 µM
[35]
  TGI: > 100 µM
[36]
  TGI: > 100 µM
[37]
  TGI: > 100 µM
[38]
  TGI: > 100 µM
[39]
  TGI: > 100 µM
[40]
  TGI: > 100 µM
[41]
  TGI: > 100 µM
[42]
  TGI: > 100 µM
[43]
  TGI: > 100 µM
[44]
  TGI: > 100 µM
[45]
  TGI: > 100 µM
[46]
  TGI: > 100 µM
[47]
  TGI: > 100 µM
[48]
  TGI: > 100 µM
[49]
  TGI: > 100 µM
[50]
  TGI: > 100 µM
[51]
  TGI: > 100 µM
[52]
  TGI: > 100 µM
[53]
  TGI: > 100 µM
[54]
  TGI: > 100 µM
[55]
  TGI: > 100 µM

## Clc1ccc(C2=NOC(C3CCCCC3)C2)cc1 (configuration not stated)
[1]
  TGI: > 100 µM
[56]
  TGI: > 100 µM
[2]
  TGI: > 100 µM
[3]
  TGI: > 100 µM
[4]
  TGI: > 100 µM
[6]
  TGI: > 100 µM
[7]
  TGI: > 100 µM
[8]
  TGI: > 100 µM
[9]
  TGI: > 100 µM
[10]
  TGI: > 100 µM
[12]
  TGI: > 100 µM
[13]
  TGI: > 100 µM
[14]
  TGI: > 100 µM
[15]
  TGI: > 100 µM
[16]
  TGI: > 100 µM
[19]
  TGI: > 100 µM
[20]
  TGI: > 100 µM
[21]
  TGI: > 100 µM
[23]
  TGI: > 100 µM
[24]
  TGI: > 100 µM
[25]
  TGI: > 100 µM
[26]
  TGI: > 100 µM
[27]
  TGI: > 100 µM
[28]
  TGI: > 100 µM
[29]
  TGI: > 100 µM
[30]
  TGI: > 100 µM
[31]
  TGI: > 100 µM
[32]
  TGI: > 100 µM
[33]
  TGI: > 100 µM
[34]
  TGI: > 100 µM
[35]
  TGI: > 100 µM
[36]
  TGI: > 100 µM
[37]
  TGI: > 100 µM
[38]
  TGI: > 100 µM
[39]
  TGI: > 100 µM
[40]
  TGI: > 100 µM
[41]
  TGI: > 100 µM
[42]
  TGI: > 100 µM
[43]
  TGI: > 100 µM
[44]
  TGI: > 100 µM
[45]
  TGI: > 100 µM
[46]
  TGI: > 100 µM
[47]
  TGI: > 100 µM
[48]
  TGI: > 100 µM
[49]
  TGI: > 100 µM
[50]
  TGI: > 100 µM
[52]
  TGI: > 100 µM
[53]
  TGI: > 100 µM
[54]
  TGI: > 100 µM
[55]
  TGI: > 100 µM
[57]
  TGI: > 100 µM

## CCCC(=O)c1ccc2c(ccc(=O)n2C)c1
[1]
  TGI: > 100 µM
[56]
  TGI: > 100 µM
[2]
  TGI: > 100 µM
[4]
  TGI: > 100 µM
[5]
  TGI: > 100 µM
[6]
  TGI: > 100 µM
[7]
  TGI: > 100 µM
[8]
  TGI: > 100 µM
[9]
  TGI: > 100 µM
[10]
  TGI: > 100 µM
[11]
  TGI: > 100 µM
[12]
  TGI: > 100 µM
[13]
  TGI: > 100 µM
[14]
  TGI: > 100 µM
[15]
  TGI: > 100 µM
[16]
  TGI: > 100 µM
[17]
  TGI: > 100 µM
[18]
  TGI: > 100 µM
[19]
  TGI: > 100 µM
[21]
  TGI: > 100 µM
[23]
  TGI: > 100 µM
[24]
  TGI: > 100 µM
[25]
  TGI: > 100 µM
[26]
  TGI: > 100 µM
[27]
  TGI: > 100 µM
[28]
  TGI: > 100 µM
[29]
  TGI: > 100 µM
[31]
  TGI: > 100 µM
[32]
  TGI: > 100 µM
[34]
  TGI: > 100 µM
[35]
  TGI: > 100 µM
[36]
  TGI: > 100 µM
[37]
  TGI: > 100 µM
[38]
  TGI: > 100 µM
[39]
  TGI: > 100 µM
[40]
  TGI: > 100 µM
[41]
  TGI: 92.3 µM
[42]
  TGI: > 100 µM
[43]
  TGI: > 100 µM
[45]
  TGI: > 100 µM
[46]
  TGI: > 100 µM
[47]
  TGI: > 100 µM
[48]
  TGI: > 100 µM
[49]
  TGI: > 100 µM
[50]
  TGI: > 100 µM
[51]
  TGI: > 100 µM
[52]
  TGI: > 100 µM
[53]
  TGI: > 100 µM
[54]
  TGI: > 100 µM
[55]
  TGI: > 100 µM
[57]
  TGI: > 100 µM
